# Laboratory results: PMC8512853, “Synthesis, Bioactivity, Pharmacokinetic and Biomimetic Properties of Multi-Substituted Coumarin Derivatives” (Molecules, 2021)
# What was measured:
# [1] = test system: HaCaT cells; experiment: DCF-DA assay (intracellular ROS after H2O2); type: cell-based, human; conditions: H2O2 treatment, 24 h; for inhibition at 100 µM: Homo sapiens, 100 μΜ, read-out: DCFDA Assay, % (100 μΜ)
# Source text: In the setting of evaluating bioactive compounds in terms of antioxidant capacity in various cell lines, DCF-DA is the most widely used assay for the detection of intracellular H2O2 and oxidative stress. DCF-DA is cell-permeable and is hydrolyzed intracellularly to the DCFH carboxylate anion, which is retained in the cell.
# DCFDA is a fluorescent dye that measures the activity of hydroxyl radicals, peroxyl radicals, and other reactive oxygen species (ROS) within the cell. The DCFDA analysis protocol is based on the diffusion of DCFDA into the cell. It is then deacetylated from cellular esterases to a non-fluorescent compound, which is later oxidized by ROS to 2’,7’ -dichlorofluoroscein (DCF). The produced compound (DCF) is fluorescent and is detected by fluorescence spectroscopy at 485/535 nm (excitation/emission).
# For the experimental procedure a standard solution of DCF-DA (20mM) in DMSO was prepared which was stored in the dark (−20 °C) until use. In a 96-well plate, cells were cultured to a density of 3 × 10^4 cells/well.
# The cells remained in the incubator (37 °C, 5% CO2) for 24 h, after which an appropriate amount of H2O2 (2 mM) was added and the dish was returned for incubation for the next 2 h. This was followed by the addition of the test substances (100μM) and incubation for 24 h. At the end of the treatment time, all wells were washed with PBS, and DCF-DA solution (working concentration: 10 μM) (in 200 μL of nutrient) was added and incubated for 40 min.
# After incubation, the medium with the DCF-DA was removed and replaced with FBS-free DMEM. The measurement of the […] was made immediately after that in a plate reader at 495/530 nm (excitation/emission).
# All samples were tested in triplicates, against a control (without effects), blank (without cells), and positive control (standard 100 μM Ascorbic acid solution was used).
# The percentage of antioxidant capacity (%) was calculated according to the following Equation (6) evaluating the presence of ROS [42]:(6) % AI=( OD Sample 530 nm−Blank)−(OD Control 530 nm−Blank)/(OD Control 530 nm−Blank) × 100
# [2] = test system: A375 cells; experiment: MTT cytotoxicity assay, A375; type: cell-based, human; conditions: for cytotoxicity at 100 µM: Homo sapiens, A-375, 24 h, A375, 100 μΜ, read-out: Cell Toxicity A375 % (100 μΜ)
# Protocol: Furthermore, the coumarin compounds synthesized in this study were also evaluated for their cytotoxicity against A549 (adenocarcinomic human alveolar basal epithelial cells) and A375 (human melanoma) cell lines.
# (§1) This protocol was used for the evaluation of cell viability and all the cell lines. It must be noted that this assay describes the count of cells that remain alive after the treatment. For the experimental procedure a standard solution of MTT 1mg/mL in PBS was prepared which after filtration ([…] filter (Millipore, Carrigtwohill, Ireland)) was stored in the dark (4–8 °C) until use. In a 96-well plate, HaCaT, A549 and A375 cells were seeded in a number of 30 × 10^4 cells/well for each evaluation series respectively. The cells were incubated (37 °C, 5% CO2) for 24 h, followed by the addition of the tested analogues (100 μM, diluted in DMEM) and another 24-h incubation. Next, appropriate amount of MTT was added in the tested wells and the plate returned to the incubator for the next 4 h for the formation of the formazan crystals. The formazan crystals were then redissolved by adding DMSO (100 μL) and stirring lightly for 40 min, after which the absorbance was measured in a plate reader at 540 nm with a reference absorbance of 720 nm.
# (§2) All samples were tested in triplicate, against a control (only cells), blank (no cells), and positive control (100 μM standard silibinin solution was used as a “cell-killing” standard).
# [3] = MTT cell viability assay, HaCaT; type: cell-based, human; conditions: human, HaCaT cells, 100 μΜ, 24 h
# Source text: The MTT assay (3- [4,5-dimethylthiazol-2-yl] -2,5 diphenyl tetrazole) is based on the conversion of MTT to formazan crystals by living cells, which determines mitochondrial activity. Since for most cell populations total mitochondrial activity is related to the number of viable cells, this assay is widely used to measure the in vitro cytotoxic effects of drugs on various cell lines or primary cells. The principle of the MTT assay is that for most viable cells the mitochondrial activity is stable, and therefore, an increase or decrease in the number of viable cells is linearly related to mitochondrial activity. The mitochondrial activity of the cells is reflected by the conversion of the MTT tetrazole salt to formazan crystals (bright purple), which can be solubilized (in this protocol with DMSO) for homogeneous measurement. Thus, any increase or decrease in the number of viable cells can be detected by measuring the formazan concentration reflected in the optical density (OD) measurement at 540 nm with a reference absorption of 720 nm.
# All the compounds were tested for their cytotoxic activity against blank and control samples in the human epidermal keratinocyte line (HaCaT), at the concentration of 100 μΜ, and the results are presented in Table 4.
# as §1, §2
# [4] = Inhibition of AAPH induced linoleic acid oxidation (lipid peroxidation)
# Source text: AAPH induced linoleic acid oxidation has been developed as a quick and reliable antioxidant activity assay. It is based on the inhibition of linoleic acid oxidation, initiated by the thermal free radical producer 2,2′-azobis(2-amidinopropane) dihydrochloride (AAPH), providing a measure of how efficiently antioxidants protect against lipid oxidation in vitro. Oxidation of exogenous linoleic acid by AAPH is followed by UV spectrophotometry at 234 nm in a highly diluted sample [38].
# For the reference sample in a UV cuvette, 10 μL of the test sample (100 μM diluted in DMSO), 10 μL linoleic acid (LA) (16 mM), and buffer solution (pH 7.4) were added to a final volume of 1ml. For the measurement sample, in a UV cuvette, 10 μL of test sample, 50 μL AAPH (40 mM), 10 μL LA, and buffer solution were added to a final volume of 1 mL. Standard and blank samples were prepared in the same way using DMSO (solvent) instead of the tested coumarin analogues. The absorbance was measured after 2 min at 37 °C at 234 nm. Results were obtained via the following Equation (5):(5) %Inhibition=(Standard−Blank)−(Reference Sample−Measurement Sample)/(Standard−Blank) × 100
Compound,"DCFDA Assay, % (100 μΜ) [1]",cytotoxicity at 100 µM [2] [%],"viability at 24 h, 100 μM [3] [%]",AAPH % inhibition (100 μΜ) [4],inhibition at 100 µM [1] [%],IC50 [4] [µM],Cell Toxicity A375 % (100 μΜ) ([2]; 24 h)
"CC(=O)Oc1ccc(-c2c(C)c3cc(Br)cc(Br)c3oc2=O)cc1 [Compound 3k, 3-(4-acetyloxyphenyl)-6,8-dibromo-4-methyl-chromen-2-one]",no,28.8,100,inactive and no,–,–,–
"CC(=O)Oc1cccc2oc(=O)c(-c3ccccc3Cl)c(C)c12 [Compound 3a, 5-acetyloxy-3-(2-chlorophenyl)-4-methyl-chromen-2-one]",–,38.7,100,–,33.8,71.9,–
"Cc1c(-c2ccc(O)cc2)c(=O)oc2c(Br)cc(Br)cc12 [Compound 4k, 6,8-dibromo-3-(4-hydroxyphenyl)-4-methyl-chromen-2-one]",no,–,100,–,–,36.9,no
"Cc1c(-c2ccc(O)cc2)c(=O)oc2ccc(Cl)cc12 [Compound 4j, 6-chloro-3-(4-hydroxyphenyl)-4-methyl-chromen-2-one]",–,11.9,73,36.1%,2.1,–,–
